The target of the experiment is T1, human neuropeptide Y5 receptor (Homo sapiens, UniProt Q15761).
T1 construct: expressed in transfected cells; membranes
T1 sequence (Q15761 1-445): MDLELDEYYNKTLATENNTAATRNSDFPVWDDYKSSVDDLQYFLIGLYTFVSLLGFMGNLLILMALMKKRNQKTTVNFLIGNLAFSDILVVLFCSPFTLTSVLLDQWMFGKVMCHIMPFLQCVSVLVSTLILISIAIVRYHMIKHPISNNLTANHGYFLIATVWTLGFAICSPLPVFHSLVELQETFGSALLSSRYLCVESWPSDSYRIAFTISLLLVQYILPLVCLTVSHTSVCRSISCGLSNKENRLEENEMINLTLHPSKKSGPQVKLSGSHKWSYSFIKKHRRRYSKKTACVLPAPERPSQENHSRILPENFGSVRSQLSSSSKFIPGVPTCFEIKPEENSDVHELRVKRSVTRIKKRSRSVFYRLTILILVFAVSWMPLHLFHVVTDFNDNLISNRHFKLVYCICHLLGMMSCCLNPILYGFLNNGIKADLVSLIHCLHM
As to the kind of experiment: NPY5 HTS centrifugation assay: competition with 125I-PYY for binding to membranes of NPY5-transfected HEK293 cells. The conditions noted are these: for % Inh @ 300 nM / inhibition at 0.3 µM: % inhibition of 125I-PYY binding at 300 nM compound; for % Inh @ 3 uM / inhibition at 3 µM: % inhibition of 125I-PYY binding at 3 uM compound; for inhibition at 0.3 µM: read-out: % Inh @ 300 nM. How it is done: NPY5 HTS Centrifugation Assay
The compounds described in this invention were evaluated for binding to the human neuropeptide Y5 receptor.
The human NPY5 receptor cDNA (Genbank Accession number U66275) was inserted into the vector pClneo (Invitrogen) and transfected into human embryonic kidney cells (HEK-293) via calcium phosphate method (Cullen 1987). Stably transfected cells were selected with G-418 (600 μg/mL). Stably transfected cells served as the source for the membranes for the NPY5 receptor binding assay.
NPY5-transfected HEK293 cells were grown to confluence in 150 cm^2 culture dishes. Cells were washed once with phosphate-buffered saline (Gibco Cat# 14040-133). Cells were then incubated in phosphate-buffered saline without calcium and without magnesium, supplemented with 2 mM EDTA. Cells were incubated for 10 minutes at room temperature and the cells were collected by repetitive pipeting. Cells were formed into pellets and then frozen at −80° C. until needed. Frozen pellets were homogenized with a polytron at full speed for 12 seconds in a homogenization buffer (20 mM Tris HCl, 5 mM EDTA, pH 7.4). Homogenates were centrifuged for 5 minutes at 4° C. at 200 g. Supernatants were transferred to corex tubes and centrifuged for 25 minutes at 28,000 g. Pellets were re-suspended in Binding (20 mM HEPES, 10 mM NaCl, 0.22 mM KH2PO4, 1.3 mM CaCl2, 0.8 mM MgSO4, pH 7.4). Membranes were kept on ice until use.
A competition binding assay, known to those skilled in the art, was used in which compounds of formula A compete with ^125I-PYY for binding to cell membranes. In simple terms, the less ^125I-PYY bound to the membranes implies that a compound is a good inhibitor (competitor). Bound ^125I-PYY is determined by centrifugation of membranes, aspirating supernatant, washing away residual ^125I-PYY and subsequently counting the bound sample in a gcounter.
Compounds to be tested were prepared as 10× stocks in binding buffer and added first to assay tubes (RIA vials, Sarstedt). Twenty (20) μL of each 10× compound stock is pipeted into vials and 80 μL of ^125I-PYY (NEN catalog number NEX240), which has been diluted to a concentration of 200 pM in 0.25% BSA in binding buffer, is added to the compound tubes (final concentration of ^125I-PYY is 80 pM). To each tube is added 100 μL of membranes and the mixture is agitated by pipeting 2 times. Samples are incubated for 1 hr at room temperature. Aluminum cast plates (Sarstedt) containing the vials are then centrifuged 10 minutes at 3200 rpm in a Sorvall RT6000. Supernatant is then aspirated. To each vial 400 μL PBS is added and this is then aspirated again. Vials are then put in carrier polypropylene 12×75 tube and counted in gamma counter (Packard). Non-specific binding is determined in the presence of 300 nM NPY. Percent inhibition of ^125I-PYY binding is calculated by subtracting non-specific binding from the test samples (compound (I)), taking these counts and dividing by total binding, and multiplying by 100. Inhibitory concentration values (IC50) of compounds that show appreciable inhibition of ^125I-PYY binding are calculated by obtaining percent inhibition of ^125I-PYY binding values at different concentrations of the test compound, and using a graphing program such as GraphPad Prism (San Diego, Calif.) to calculate the concentration of test compound that inhibits fifty-percent of ^125I-PYY binding (Table 4).

Structures are written as SMILES.

For `COc1ccc2c(c1)CC[C@@H]1N=C(NC(=O)[C@H]3CC[C@H](CNS(=O)(=O)c4ccccc4)CC3)C[C@H]21` (relative stereo) [Compound 7, trans-4-[[(Phenylsulfonyl)amino]methyl]-N-(cis-3a,4,5,9b-tetrahydro-7-methoxy-1H-benz[e]indol-2-yl)cyclohexanecarboxamide], the “% Inh @ 300 nM” value (0.3 µM) is listed as 82%. For the same compound, the “% Inh @ 3 uM” value (3 µM) is given as 98%.

Take `O=C(NC1=N[C@H]2CCc3cc(O)ccc3[C@H]2C1)[C@H]1CC[C@H](CNS(=O)(=O)c2ccccc2)CC1` (relative stereo) [Compound 9, trans-4-[[(Phenylsulfonyl)amino]methyl]-N-(cis-3a,4,5,9b-tetrahydro-7-hydroxy-1H-benz[e]indol-2-yl)cyclohexanecarboxamide]: the inhibition at 0.3 µM was found to be 97% and the inhibition at 3 µM stood at 97%.

As to `O=C(NC1=N[C@H]2CCc3ccccc3[C@H]2C1)[C@H]1CC[C@H](CNS(=O)(=O)c2ccccc2)CC1` (relative stereo) [Compound 13, trans-4-[[(Phenylsulfonyl)amino]methyl]-N-(cis-3a,4,5,9b-tetrahydro-1H-benz[e]indol-2-yl)cyclohexanecarboxamide], the inhibition at 0.3 µM is 80% and the inhibition at 3 µM is 100%.

With `O=S(=O)(NC[C@H]1CC[C@H](CNC2=N[C@H]3CCc4ccccc4[C@H]3C2)CC1)c1ccccc1` (relative stereo) [Compound 14, N-[[trans-4-[[(cis-3a,4,5,9b-tetrahydro-1 H-benz[e]indol-2-yl)amino]methyl]cyclohexyl]methyl]benzenesulfonamide], the inhibition at 0.3 µM is 89% and the inhibition at 3 µM was found to be 93%.

`O=C(NC1=N[C@H]2CCc3cc(F)ccc3[C@H]2C1)[C@H]1CC[C@H](CNS(=O)(=O)c2ccccc2)CC1` (relative stereo) [Compound 15, trans-4-[[(Phenylsulfonyl)amino]methyl]-N-(cis-3a,4,5,9b-tetrahydro-7-fluoro-1H-benz[e]indol-2-yl)cyclohexanecarboxamide]: the inhibition at 0.3 µM is 89% and the inhibition at 3 µM was 100%.

Take `O=S(=O)(NC[C@H]1CC[C@H](CNC2=N[C@H]3CCc4cc(F)ccc4[C@H]3C2)CC1)c1ccccc1` (relative stereo) [Compound 16, N-[[trans-4-[[(cis-3a,4,5,9b-tetrahydro-7-fluoro-1H-bnz[ ]indol-2-yl)amino]methyl]cyclohexyl]methyl]benzenesulfonamide]: the “% Inh @ 300 nM” value is given as 76% and the “% Inh @ 3 uM” value is listed as 100%.

Turning to `O=C(NC1=N[C@H]2CCc3cc(Cl)ccc3[C@H]2C1)[C@H]1CC[C@H](CNS(=O)(=O)c2ccccc2)CC1` (relative stereo) [Compound 17, trans-4-[[(Phenylsulfonyl)amino]methyl]-N-(cis-3a,4,5,9b-tetrahydro-7chloro-1H-benz[e]indol-2-yl)cyclohexanecarboxamide], the inhibition at 0.3 µM came out at 86% and the inhibition at 3 µM came out at 107%.

Turning to `O=S(=O)(NC[C@H]1CC[C@H](CNC2=N[C@H]3CCc4cc(Cl)ccc4[C@H]3C2)CC1)c1ccccc1` (relative stereo) [Compound 18, N-[[trans-4-[[(cis-3a,4,5,9b-tetrahydro-7-chloro-1H-benz[e]indol-2-yl)amino]methyl]cyclohexyl]methyl]benzenesulfonamide], the inhibition at 0.3 µM was determined as 90% and the inhibition at 3 µM was found to be 109%.

In the case of `COc1ccc2c(c1)CC[C@@H]1N=C(NC(=O)[C@H]3CC[C@H](CNS(=O)(=O)c4ccccc4)CC3)C[C@H]21` (relative stereo) [Compound 19, trans-4-[[(Phenylsulfonyl)amino]methyl]-N-(cis-3a,4,5,9b-tetrahydro-7-methoxy-1H-benz[e]indol-2-yl)cyclohexanecarboxamide], the inhibition at 0.3 µM turned out to be 80% and the inhibition at 3 µM was 99%.

As to `O=C(CN1CCC(n2c(=O)[nH]c3ccccc32)CC1)NC1=N[C@@H]2CCc3ccccc3[C@@H]2C1` [Compound 11], the inhibition at 0.3 µM was determined as 48% and the inhibition at 3 µM was found to be 85%.

In the case of `COc1ccc2c(c1)CCC1N=C(NCCN3CCC(n4c(=O)[nH]c5ccccc54)CC3)CC21` (centres unmarked) [Compound 12], the “% Inh @ 300 nM” value is given as 9% and the “% Inh @ 3 uM” value is reported as 53%.

With `COc1ccc2c(c1)CCC1NC(N)(C(=O)CN3CCC(n4c(=O)[nH]c5ccccc54)CC3)CC21` (centres unmarked) [Compound 20, 2-[[4-(2,3-Dihydro-2-oxo-1H-benzimidazol-1-yl)-1-piperidinyl]acetyl]-[3a,4,5,9b-tetrahydro-7-methoxy-1H-benzo[e]indol-2-yl]-amine], the inhibition at 0.3 µM is 0% and the inhibition at 3 µM was 50%.

As for `NC1(C(=O)CN2CCC(n3c(=O)[nH]c4ccccc43)CC2)CC2c3ccc(O)cc3CCC2N1` (centres unmarked) [Compound 21, 2-[[4-(2,3-Dihydro-2-oxo-1H-benzimidazol-1-yl)-1-piperidinyl]acetyl]-[3a,4,5,9b-tetrahydro-7-hydroxy-1H-benzo[e]indol-2-yl]-amine], the inhibition at 0.3 µM is 20% and the inhibition at 3 µM is 78%.

The record behind these values is patent US6841552B1, “3a,4,5,9b-tetrahydro-1H-benz[e]indol-2-yl amine-derived neuropeptide Y receptors ligands useful in the treatment of obesity and other disorders” (Ortho-McNeil Pharmaceutical, Inc., priority 1999, dated 2005).
